From patent US20140199279A1, “METHODS FOR ENHANCING THE DELIVERY OF GENE-[…]” (Bluebird Bio, Inc., priority 2011, published 2014)
Values joined by “and” are separate entries in the source; they are usually repeats but may differ in a detail not shown here. Identical values can stand only once.

Tests used:
bone marrow CD34+ cells = experiment: Puromycin selection of HPV654-transduced bone marrow CD34+ cells; PCR of CFU-GM colonies for lentiviral vector; type: cell-based, human; conditions: BM CD34+ cells, 5 μg/ml puromycin for 24 hours, 14 days growth
[1] = system: G-CSF mobilized peripheral blood CD34+ cells; experiment: Puromycin selection of HPV654-transduced G-CSF mobilized peripheral blood CD34+ cells; PCR of CFU-GM colonies for lentiviral vector; type: cell-based, human

`COc1ccc(C[C@H](N)C(=O)N[C@H]2[C@@H](O)[C@H](n3cnc4c(N(C)C)ncnc43)O[C@@H]2CO)cc1` [puromycin] was tested, and the “colonies positive for the lentiviral vector (transduced cells)” value (“colonies positive” below) (bone marrow CD34+ cells; 10% HPV654 supernatant) was 100%, the “colonies positive” value (bone marrow CD34+ cells; 50% HPV654 supernatant) was 79% and the “colonies positive” value [1] was 88% and 100%.
